{
  "source": "patent EP1664254B9",
  "about": "“LIQUID LAUNDRY DETERGENT WITH POLYANIONIC AMMONIUM SURFACTANT” (priority 2003, dated 2005)",
  "data": [
    {"assay": "not given", "settings": "* from Huntsman Technical Bulletin \"Amine applications and properties data applications\"; cited from earlier work", "values": [
      {"compound": "NCCN", "note": "[Ethylenediamine (EDA), Ethylenediamine]", "pKa": "9.90*"},
      {"compound": "NCCNCCNCCN", "note": "[Triethylenetetramine (TETA), Triethylenetetramine]", "pKa": "9.80*"}
    ]},
    {"assay": "not given", "settings": "according to McMurry, Organic Chemistry, p. 45, 1984; cited from earlier work", "values": [
      {"compound": "ethoxide CH3CH2O^-", "pKa": 16}
    ]},
    {"assay": "not given", "settings": "from CRC Handbook of Chemistry and Physics, 83rd Edition; cited from earlier work", "values": [
      {"compound": "CC(N)(O)CN", "note": "(centres unmarked) [1,2-diamino-2-propanol]", "pKa1": 9.69, "pKa2": 7.93},
      {"compound": "CC(N)CN", "note": "(centres unmarked) [1,2-propanediamine]", "pKa1": 9.82, "pKa2": 6.61},
      {"compound": "NCCCN", "note": "[1,3-propanediamine]", "pKa2": 8.88},
      {"compound": "NCCCCN", "note": "[1,4-Butanediamine]", "pKa": 10.80},
      {"compound": "NCCCCCN", "note": "[1,5-pentanediamine]", "pKa1": 10.25, "pKa2": 9.13},
      {"compound": "NCCCCCCN", "note": "[1,6-Hexanediamine]", "pKa1": 11.86, "pKa2": 10.76},
      {"compound": "CC(C)(C)CN", "note": "[2,2-dimethylpropylamine]", "pKa": 10.15},
      {"compound": "COCCN", "note": "[2-mthyloxyethylamine]", "pKa": 9.40},
      {"compound": "NC1CCCCC1", "note": "[Cyclohexylamine]", "pKa": 10.64},
      {"compound": "NCCN", "note": "[Ethylenediamine (EDA), Ethylenediamine]", "pKa1": 9.92, "pKa2": 6.82},
      {"compound": "CNO", "note": "[Methylhydroxylamine]", "pKa": 12.50},
      {"compound": "CN(C)CCN(C)C", "note": "[N,N,N',N'-Tetramethyl1,2-ethanediamine]", "pKa1": 10.40, "pKa2": 8.26}
    ]},
    {"assay": "Water solubility / appearance and pH of solution on mixing, dilution and standing", "type": "physicochemical", "settings": "TEPA 2.0 g in water 94.0 g", "from_the_text": "In Example 1 (within the scope of the invention), when LAS acid was neutralized with a polyamine (i.e., TEPA), it formed PAAS. As PAAS began forming, the solution became hazy. Upon further addition of the LAS acid, the hazy solution became a dispersion. Upon standing for hours, the dispersion formed a layer of sediment at the bottom of the beaker. Even a very diluted formulation (such as below 0.1%) was hazy.\nThe solution was clear at the all time over the entire pH range, leading to the conclusion that Na-LAS was fully ionized or disassociated.\nSodium xylenesulfonate was added to an aqueous PAAS dispersion to attempt to solubilize PAAS by ion-exchange and/or hydrotrope mechanism.\nExample 1 was repeated, except that fatty acid was used in place of LAS acid. […]\nThis example investigated the solubilization of PAAS in water, with the aid of a solubiliser. A dispersion of PAAS (with LAS and fatty acid as conjugated acid) was mixed with Na-LES solution (59.5% Na-LES, 10% propylene glycol, 6.5% ethanol, and balance of water). […]", "values": [
      {"compound": "NCCNCCNCCNCCN", "note": "[TEPA, Tetraethylenepentamine]", "Observations": "Clear"}
    ]},
    {"assay": "not given", "settings": "0.01 N; cited from earlier work", "values": [
      {"compound": "[K+].[OH-]", "note": "[KOH, potassium hydroxide]", "pH": 12.0},
      {"compound": "[Na+].[OH-]", "note": "[NaOH, sodium hydroxide]", "pH": 12.0}
    ]},
    {"assay": "not given", "settings": "1.0 N aqueous solutions; cited from earlier work", "values": [
      {"compound": "[K+].[OH-]", "note": "[KOH, potassium hydroxide]", "pH": 14.0},
      {"compound": "[Na+].[OH-]", "note": "[NaOH, sodium hydroxide]", "pH": 14.0}
    ]}
  ]
}
